Test results taken from PubChem BioAssay (NCI).
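Assay format: 96-well plates, 48-hour exposure. GI50: concentration for 50% inhibition of growth. TGI: total growth inhibition.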

What was measured:
Experiment in all cases: NCI anticancer screen, dose series, 48 h
HOP-92 NSCLC = system: HOP-92 NSCLC
SNB-75 CNS = system: SNB-75 CNS
SK-MEL-28 melanoma = system: SK-MEL-28 melanoma
HT29 colon = system: HT29 colon
OVCAR-8 ovarian = system: OVCAR-8 ovarian
MCF7 breast = system: MCF7 breast
MALME-3M melanoma = system: MALME-3M melanoma
A549 NSCLC = system: A549 NSCLC
ACHN renal = system: ACHN renal
SK-OV-3 ovarian = system: SK-OV-3 ovarian
LOX IMVI melanoma = system: LOX IMVI melanoma
OVCAR-3 ovarian = system: OVCAR-3 ovarian
MDA-MB-468 breast = system: MDA-MB-468 breast
BT-549 breast = system: BT-549 breast
HS 578T breast = system: HS 578T breast
786-0 renal = system: 786-0 renal
SF-295 CNS = system: SF-295 CNS
EKVX NSCLC = system: EKVX NSCLC
NCI/ADR-RES ovarian = system: NCI/ADR-RES ovarian
NCI-H460 lung = system: NCI-H460 lung
SF-268 CNS = system: SF-268 CNS
HCT-15 colon = system: HCT-15 colon
T-47D breast = system: T-47D breast
KM12 colon = system: KM12 colon
DU-145 prostate = system: DU-145 prostate
HCC-2998 colon = system: HCC-2998 colon
OVCAR-5 ovarian = system: OVCAR-5 ovarian
A498 renal = system: A498 renal
PC-3 prostate = system: PC-3 prostate
NCI-H23 lung = system: NCI-H23 lung
U251 CNS = system: U251 CNS
SNB-19 CNS = system: SNB-19 CNS
RXF 393 renal = system: RXF 393 renal
SR leukemia = system: SR leukemia
MOLT-4 leukemia = system: MOLT-4 leukemia
TK-10 renal = system: TK-10 renal
HL-60(TB) leukemia = system: HL-60(TB) leukemia
UACC-62 melanoma = system: UACC-62 melanoma
UACC-257 melanoma = system: UACC-257 melanoma
SK-MEL-5 melanoma = system: SK-MEL-5 melanoma
SK-MEL-2 melanoma = system: SK-MEL-2 melanoma
HOP-62 NSCLC = system: HOP-62 NSCLC
RPMI-8226 leukemia = system: RPMI-8226 leukemia
SF-539 CNS = system: SF-539 CNS
IGROV1 ovarian = system: IGROV1 ovarian
K-562 leukemia = system: K-562 leukemia
COLO 205 colon = system: COLO 205 colon
HCT-116 colon = system: HCT-116 colon
CAKI-1 renal = system: CAKI-1 renal
SW-620 colon = system: SW-620 colon
CCRF-CEM leukemia = system: CCRF-CEM leukemia
OVCAR-4 ovarian = system: OVCAR-4 ovarian
NCI-H226 lung = system: NCI-H226 lung
M14 melanoma = system: M14 melanoma
UO-31 renal = system: UO-31 renal
MDA-MB-231 breast = system: MDA-MB-231 breast
SN12C renal = system: SN12C renal
NCI-H522 lung = system: NCI-H522 lung
MDA-MB-435 = system: MDA-MB-435

## COc1ccc(CCC2NCCc3c(Br)c4c(c(OC)c32)OCO4)cc1 (stereo not given)
HOP-92 NSCLC
  GI50: 2.69 µM
  TGI: 18.2 µM
SNB-75 CNS
  GI50: 7.93 µM
  TGI: 35.3 µM
SK-MEL-28 melanoma
  GI50: 2.5 µM
  TGI: 12.6 µM
HT29 colon
  GI50: 1.77 µM
  TGI: 8.33 µM
OVCAR-8 ovarian
  GI50: 11.1 µM
  TGI: > 55.8 µM
MCF7 breast
  GI50: 7.13 µM
  TGI: 26.6 µM
MALME-3M melanoma
  GI50: 4.98 µM
  TGI: 13.5 µM
A549 NSCLC
  GI50: 4.01 µM
  TGI: > 55.8 µM
ACHN renal
  GI50: 8.23 µM
  TGI: > 55.8 µM
SK-OV-3 ovarian
  GI50: 10.5 µM
  TGI: > 55.8 µM
LOX IMVI melanoma
  GI50: 6.31 µM
  TGI: 14.5 µM
OVCAR-3 ovarian
  GI50: 3.37 µM
  TGI: 29.8 µM
MDA-MB-468 breast
  GI50: 4.45 µM
  TGI: 15.9 µM
BT-549 breast
  GI50: 7.45 µM
  TGI: 25.5 µM
HS 578T breast
  GI50: 6.63 µM
  TGI: 28.3 µM
786-0 renal
  GI50: 9.75 µM
  TGI: > 55.8 µM
SF-295 CNS
  GI50: 2.36 µM
  TGI: 41.6 µM
EKVX NSCLC
  GI50: 11.5 µM
  TGI: > 55.8 µM
NCI/ADR-RES ovarian
  GI50: 6.99 µM
  TGI: 28.4 µM
NCI-H460 lung
  GI50: 2.77 µM
  TGI: 21.7 µM
SF-268 CNS
  GI50: 12.5 µM
  TGI: > 55.8 µM
HCT-15 colon
  GI50: 3.53 µM
  TGI: > 55.8 µM
T-47D breast
  GI50: 4.78 µM
  TGI: 27.3 µM
KM12 colon
  GI50: 2.82 µM
  TGI: > 55.8 µM
DU-145 prostate
  GI50: 15.9 µM
  TGI: > 55.8 µM
HCC-2998 colon
  GI50: 6.82 µM
  TGI: 15.5 µM
OVCAR-5 ovarian
  GI50: 3.28 µM
  TGI: 36.8 µM
A498 renal
  GI50: 29 µM
  TGI: > 55.8 µM
PC-3 prostate
  GI50: 6.16 µM
  TGI: > 55.8 µM
NCI-H23 lung
  GI50: 6.79 µM
  TGI: 38.1 µM
U251 CNS
  GI50: 10.7 µM
  TGI: > 55.8 µM
SNB-19 CNS
  GI50: 11.1 µM
  TGI: > 55.8 µM
RXF 393 renal
  GI50: 7.57 µM
  TGI: 39.4 µM
SR leukemia
  GI50: 2.33 µM
  TGI: 31.2 µM
MOLT-4 leukemia
  GI50: 4.46 µM
  TGI: > 55.8 µM
TK-10 renal
  GI50: 11.8 µM
  TGI: > 55.8 µM
HL-60(TB) leukemia
  GI50: 2.44 µM
  TGI: 17.7 µM
UACC-62 melanoma
  GI50: 1.34 µM
  TGI: 3.98 µM
UACC-257 melanoma
  GI50: 9.2 µM
  TGI: > 55.8 µM
SK-MEL-5 melanoma
  GI50: 3.64 µM
  TGI: 11.9 µM
SK-MEL-2 melanoma
  GI50: 2.99 µM
  TGI: 16.5 µM
HOP-62 NSCLC
  GI50: 2.68 µM
  TGI: > 55.8 µM
RPMI-8226 leukemia
  GI50: 2.23 µM
  TGI: 15.9 µM
SF-539 CNS
  GI50: 6 µM
  TGI: 14.3 µM
IGROV1 ovarian
  GI50: 3.92 µM
  TGI: 44.6 µM
K-562 leukemia
  GI50: 1.84 µM
  TGI: > 55.8 µM
COLO 205 colon
  GI50: 2.84 µM
  TGI: 11.8 µM
HCT-116 colon
  GI50: 1.84 µM
  TGI: > 55.8 µM
CAKI-1 renal
  GI50: 3.08 µM
  TGI: > 55.8 µM
SW-620 colon
  GI50: 1.76 µM
  TGI: 9.77 µM
CCRF-CEM leukemia
  GI50: 6.76 µM
  TGI: 37.3 µM
OVCAR-4 ovarian
  GI50: 12.6 µM
  TGI: > 55.8 µM
NCI-H226 lung
  GI50: 6.71 µM
  TGI: > 55.8 µM
M14 melanoma
  GI50: 2.05 µM
  TGI: > 55.8 µM
UO-31 renal
  GI50: 7.85 µM
  TGI: > 55.8 µM
MDA-MB-231 breast
  GI50: 2.08 µM
  TGI: 15.5 µM
SN12C renal
  GI50: 5.1 µM
  TGI: 42.7 µM
NCI-H522 lung
  GI50: 1.72 µM
  TGI: 10.1 µM

## Cn1cc(-c2cc(N)n3nc(-c4c[nH]c5ccc(F)cc45)cc3n2)c2cccnc21
HOP-92 NSCLC
  GI50: 14.2 µM
  TGI: 39 µM
SK-MEL-28 melanoma
  GI50: 1.7 µM
  TGI: 3.17 µM
HT29 colon
  GI50: 1.91 µM
  TGI: 3.85 µM
OVCAR-8 ovarian
  GI50: 3.18 µM
  TGI: 11 µM
MCF7 breast
  GI50: 2.01 µM
  TGI: 4.19 µM
MALME-3M melanoma
  GI50: 1.75 µM
  TGI: 3.59 µM
A549 NSCLC
  GI50: 2.48 µM
  TGI: 7.91 µM
ACHN renal
  GI50: 1.71 µM
  TGI: 3.23 µM
SK-OV-3 ovarian
  GI50: 18.1 µM
  TGI: 39.2 µM
LOX IMVI melanoma
  GI50: 1.8 µM
  TGI: 3.29 µM
OVCAR-3 ovarian
  GI50: 1.82 µM
  TGI: 3.69 µM
MDA-MB-468 breast
  GI50: 1.66 µM
  TGI: 3.27 µM
BT-549 breast
  GI50: 12.8 µM
  TGI: 28.1 µM
HS 578T breast
  GI50: 16.9 µM
  TGI: 54.2 µM
786-0 renal
  GI50: 1.64 µM
  TGI: 3.11 µM
SF-295 CNS
  GI50: 1.69 µM
  TGI: 3.17 µM
EKVX NSCLC
  GI50: 3.47 µM
  TGI: 14.9 µM
NCI-H460 lung
  GI50: 1.8 µM
  TGI: 3.61 µM
SF-268 CNS
  GI50: 11.6 µM
  TGI: 39.6 µM
HCT-15 colon
  GI50: 1.82 µM
  TGI: 4.14 µM
MDA-MB-435
  GI50: 1.92 µM
  TGI: 4.18 µM
T-47D breast
  GI50: 2.9 µM
  TGI: 13.2 µM
KM12 colon
  GI50: 2.5 µM
  TGI: 6.26 µM
DU-145 prostate
  GI50: 2.06 µM
  TGI: 4.4 µM
HCC-2998 colon
  GI50: 1.79 µM
  TGI: 3.33 µM
OVCAR-5 ovarian
  GI50: 3.33 µM
  TGI: 13.4 µM
A498 renal
  GI50: 17 µM
  TGI: 30.9 µM
PC-3 prostate
  GI50: 3.26 µM
  TGI: 13.4 µM
NCI-H23 lung
  GI50: 2.52 µM
  TGI: 7.67 µM
U251 CNS
  GI50: 2 µM
  TGI: 4.1 µM
SNB-19 CNS
  GI50: 4.05 µM
  TGI: 16.2 µM
RXF 393 renal
  GI50: 1.77 µM
  TGI: 3.35 µM
SR leukemia
  GI50: 2.8 µM
  TGI: > 100 µM
MOLT-4 leukemia
  GI50: 2.42 µM
  TGI: 7.73 µM
TK-10 renal
  GI50: 2.95 µM
  TGI: 11.1 µM
HL-60(TB) leukemia
  GI50: 1.9 µM
  TGI: 4.71 µM
UACC-62 melanoma
  GI50: 1.77 µM
  TGI: 3.34 µM
UACC-257 melanoma
  GI50: 14.8 µM
  TGI: 28 µM
SK-MEL-5 melanoma
  GI50: 11.6 µM
  TGI: 24.1 µM
SK-MEL-2 melanoma
  GI50: 12.6 µM
  TGI: 25.2 µM
HOP-62 NSCLC
  GI50: 8.69 µM
  TGI: 21.2 µM
RPMI-8226 leukemia
  GI50: 2.43 µM
  TGI: 7.74 µM
SF-539 CNS
  GI50: 1.78 µM
  TGI: 3.25 µM
IGROV1 ovarian
  GI50: 2.24 µM
  TGI: 5.39 µM
K-562 leukemia
  GI50: 3.42 µM
  TGI: 28.3 µM
COLO 205 colon
  GI50: 1.78 µM
  TGI: 3.46 µM
HCT-116 colon
  GI50: 1.9 µM
  TGI: 3.6 µM
CAKI-1 renal
  GI50: 2.21 µM
  TGI: 6.42 µM
SW-620 colon
  GI50: 1.83 µM
  TGI: 3.78 µM
CCRF-CEM leukemia
  GI50: 2.35 µM
  TGI: 7.74 µM
OVCAR-4 ovarian
  GI50: 11.6 µM
  TGI: 30 µM
NCI-H226 lung
  GI50: 1.92 µM
  TGI: 4 µM
M14 melanoma
  GI50: 1.88 µM
  TGI: 4.01 µM
UO-31 renal
  GI50: 1.66 µM
  TGI: 3.24 µM
MDA-MB-231 breast
  GI50: 1.92 µM
  TGI: 3.7 µM
SN12C renal
  GI50: 13.1 µM
  TGI: 26.2 µM
NCI-H522 lung
  GI50: 13.8 µM
  TGI: 27.4 µM
